The test system of the assay is HCV 1b genotype. Put plainly: HCV Replicon assay (HCV 1b genotype). The assay is classed as cell-based, Hepatitis C virus. The note with it: Hepatitis C virus, HCV 1b genotype replicon. How it is done: An HCV Replicon assay was utilized in the present disclosure, and was prepared, conducted and validated as described in commonly owned PCT/US2006/022197 and in O'Boyle et. al. Antimicrob Agents Chemother. 2005 April; 49(4):1346-53. Assay methods incorporating luciferase reporters have also been used as described (Apath.com).
HCV-neo replicon cells and replicon cells containing mutations in the NS5A region were used to test the currently described family of compounds. The compounds were determined to have more than 10-fold less inhibitory activity on cells containing mutations than wild-type cells. Thus, the compounds of the present disclosure can be effective in inhibiting the function of the HCV NS5A protein and are understood to be as effective in combinations as previously described in application PCT/US2006/022197 and commonly owned WO/04014852. Further, the compounds of the present disclosure can be effective against the HCV 1b genotype. It should also be understood that the compounds of the present disclosure can inhibit multiple genotypes of HCV. […] In one embodiment, compounds of the present disclosure are inhibitory versus 1a, 1b, 2a, 2b, 3a, 4a, and 5a genotypes.

[1] abbreviates: class symbol, read-out: Range (EC50 values against HCV 1b).
Where [2] appears, read: Effective 50% inhibitory concentration, read-out: 1b EC50.

Molecules are shown by their SMILES. Where two headings read alike, the source gives them in different places.

As for `COC(=O)N[C@H](C(=O)N1[C@@H]2C[C@@H]2C[C@H]1c1nc2ccc3cc(C#Cc4ccc5c(ccc6nc([C@@H]7C[C@H]8C[C@H]8N7C(=O)[C@@H](NC(=O)OC)C7CCOCC7)[nH]c65)c4)ccc3c2[nH]1)C(C)C` [Example D-11, methyl ((1S)-2-((1R,3S,5R)-3-(7-((2-((1R,3S,5R)-2-((2S)-2-((methoxycarbonyl)amino)-3-methylbutanoyl)-2-azabicyclo[3.1.0]hex-3-yl)-1H-naphtho[1,2-d]imidazol-7-yl)ethynyl)-1H-naphtho[1,2-d]imidazol-2-yl)-2-azabicyclo[3.1.0]hex-2-yl)-2-oxo-1-(tetrahydro-2H-pyran-4-yl)ethyl)carbamate], under setting [1], the EC50 (as a rule, the concentration needed to bring the measured effect to its halfway point) lay within 0.002 to 0.099 nM.
On to `COC(=O)N[C@H](C(=O)N1CCC[C@H]1c1nc(-c2cccc(C#Cc3cccc(-c4c[nH]c([C@@H]5CCCN5C(=O)[C@@H](NC(=O)OC)C(C)C)n4)c3)c2)c[nH]1)C(C)C` [Example J1, methyl ((1S)-1-(((2S)-2-(4-(3-((3-(2-((2S)-1-((2S)-2-((methoxycarbonyl)amino)-3-methylbutanoyl)-2-pyrrolidinyl)-1H-imidazol-4-yl)phenyl)ethynyl)phenyl)-1H-imidazol-2-yl)-1-pyrrolidinyl)carbonyl)-2-methylpropyl)carbamate], for which the EC50 under setting [1] was in the range of 0.002 to 0.099 nM.
For the compound `COC(=O)N[C@H](C(=O)N1CCC[C@H]1c1nc(-c2cccc(C#Cc3cccc(-c4c[nH]c([C@@H]5CCCN5)n4)c3)c2)c[nH]1)C(C)C` [Example J1.1, methyl ((1S)-2-methyl-1-(((2S)-2-(4-(3-((3-(2-((2S)-2-pyrrolidinyl)-1H-imidazol-4-yl)phenyl)ethynyl)phenyl)-1H-imidazol-2-yl)-1-pyrrolidinyl)carbonyl)propyl)carbamate], the EC50 under setting [2] was 339 nM and the EC50 under setting [1] lay within 10 to 350 nM.
In the case of `COC(=O)N[C@H](C(=O)N1CCC[C@H]1c1ncc(-c2cccc(C#Cc3cccc(-c4cnc([C@@H]5CCCN5C(=O)[C@@H](NC(=O)OC)C5CCOCC5)[nH]4)c3)c2)[nH]1)C1CCOCC1` [Example J2, dimethyl (1,2-ethynediylbis(3,1-phenylene-1H-imidazole-4,2-diyl(2S)-2,1-pyrrolidinediyl((1S)-2-oxo-1-(tetrahydro-2H-pyran-4-yl)-2,1-ethanediyl)))biscarbamate], the 50% effective concentration (EC50) was 0.12 nM under setting [2] and 0.1 to 0.99 nM under setting [1].
Consider `COC(=O)N[C@H](C(=O)N1[C@@H]2C[C@@H]2C[C@H]1c1ncc(-c2cccc(C#Cc3cccc(-c4cnc([C@@H]5C[C@H]6C[C@H]6N5C(=O)[C@@H](NC(=O)OC)C(C)C)[nH]4)c3)c2)[nH]1)C(C)C` [Example J3, methyl ((1S)-1-(((1R,3S,5R)-3-(4-(3-((3-(2-((1R,3S,5R)-2-((2S)-2-((methoxycarbonyl)amino)-3-methylbutanoyl)-2-azabicyclo[3.1.0]hex-3-yl)-1H-imidazol-4-yl)phenyl)ethynyl)phenyl)-1H-imidazol-2-yl)-2-azabicyclo[3.1.0]hex-2-yl)carbonyl)-2-methylpropyl)carbamate], for which the EC50 under setting [1] fell in the range of 0.002 to 0.099 nM.
`COC(=O)N[C@H](C(=O)N1[C@@H]2C[C@@H]2C[C@H]1c1ncc(-c2cccc(C#Cc3cccc(-c4cnc([C@@H]5C[C@H]6C[C@H]6N5C(=O)[C@@H](NC(=O)OC)C5CCOCC5)[nH]4)c3)c2)[nH]1)C1CCOCC1` [Example J4, dimethyl (1,2-ethynediylbis(3,1-phenylene-1H-imidazole-4,2-diyl(1R,3S,5R)-2-azabicyclo[3.1.0]hexane-3,2-diyl((1S)-2-oxo-1-(tetrahydro-2H-pyran-4-yl)-2,1-ethanediyl)))biscarbamate]: the EC50 under setting [1] was 0.002 to 0.099 nM.
With `COC(=O)N[C@H](C(=O)N1CCC[C@H]1c1nc(-c2ccc(C#Cc3ccc(-c4ccc(-c5c[nH]c([C@@H]6CCCN6C(=O)[C@@H](NC(=O)OC)C(C)C)n5)cc4)cc3)cc2)c[nH]1)C(C)C` [Example J5, methyl ((1S)-1-(((2S)-2-(4-(4′-((4-(2-((2S)-1-((2S)-2-((methoxycarbonyl)amino)-3-methylbutanoyl)-2-pyrrolidinyl)-1H-imidazol-4-yl)phenyl)ethynyl)-4-biphenylyl)-1H-imidazol-2-yl)-1-pyrrolidinyl)carbonyl)-2-methylpropyl)carbamate], the 50% effective concentration (EC50) under setting [1] was in the range of 0.002 to 0.099 nM.
Turning to `COC(=O)N[C@H](C(=O)N1CCC[C@H]1c1nc(-c2ccc(C#Cc3ccc(-c4c[nH]c([C@@H]5CCCN5C(=O)[C@@H](NC(=O)OC)C(C)C)n4)cc3)cc2)c[nH]1)C(C)C` [Example M1, methyl ((1S)-1-(((2S)-2-(4-(4-((4-(2-((2S)-1-((2S)-2-((methoxycarbonyl)amino)-3-methylbutanoyl)-2-pyrrolidinyl)-1H-imidazol-4-yl)phenyl)ethynyl)phenyl)-1H-imidazol-2-yl)-1-prrolidinyl)carbonyl)-2-methylpropyl)carbamate], the EC50 under setting [1] lay within 0.002 to 0.099 nM.
On to `COC(=O)N[C@@H](C(=O)N1CCC[C@H]1c1nc(-c2ccc(C#Cc3ccc(-c4c[nH]c([C@@H]5CCCN5C(=O)[C@H](NC(=O)OC)c5ccccc5)n4)cc3)cc2)c[nH]1)c1ccccc1` [Example M2, dimethyl (1,2-ethynediylbis(4,1-phenylene-1H-imidazole-4,2-diyl(2S)-2,1-pyrrolidinediyl((1R)-2-oxo-1-phenyl-2,1-ethanediyl)))biscarbamate], for which the concentration for a half-maximal effect (EC50) is 0.24 nM under setting [2] and 0.1 to 0.99 nM under setting [1].
Take `COC(=O)N[C@H](C(=O)N1CCC[C@H]1c1nc(-c2ccc(C#Cc3ccc(-c4c[nH]c([C@@H]5CCCN5C(=O)[C@@H](NC(=O)OC)C5CCOCC5)n4)cc3)cc2)c[nH]1)C1CCOCC1` [Example M2.1, dimethyl (1,2-ethynediylbis(4,1-phenylene-1H-imidazole-4,2-diyl(2S)-2,1-pyrrolidinediyl((1S)-2-oxo-1-(tetrahydro-2H-pyran-4-yl)-2,1-ethanediyl)))biscarbamate]: under setting [1], the EC50 fell in the range of 0.002 to 0.099 nM.
Consider `COC(=O)N[C@H](C(=O)N1[C@@H]2C[C@@H]2C[C@H]1c1nc(-c2ccc(C#Cc3ccc(-c4c[nH]c([C@@H]5C[C@H]6C[C@H]6N5C(=O)[C@@H](NC(=O)OC)C(C)C)n4)cc3)cc2)c[nH]1)C(C)C` [Example M3, methyl ((1S)-1-(((1R,3S,5R)-3-(4-(4-((4-(2-((1R,3S,5R)-2-((2S)-2-((methoxycarbonyl)amino)-3-methylbutanoyl)-2-azabicyclo[3.1.0]hex-3-yl)-1H-imidazol-4-yl)phenyl)ethynyl)phenyl)-1H-imidazol-2-yl)-2-azabicyclo[3.1.0]hex-2-yl)carbonyl)-2-methylpropyl)carbamate], for which the EC50 under setting [1] is 0.002 to 0.099 nM.
With `CC[C@H](NC(=O)OC)C(=O)N1[C@@H]2C[C@@H]2C[C@H]1c1nc(-c2ccc(C#Cc3ccc(-c4c[nH]c([C@@H]5C[C@H]6C[C@H]6N5C(=O)[C@H](CC)NC(=O)OC)n4)cc3)cc2)c[nH]1` [Example M4, dimethyl (1,2-ethynediylbis(4,1-phenylene-1H-imidazole-4,2-diyl(1R,3S,5R)-2-azabicyclo[3.1.0]hexane-3,2-diyl((2S)-1-oxo-1,2-butanediyl)))biscarbamate], the EC50 under setting [1] was 0.002 to 0.099 nM.
As for `COC(=O)N[C@H](C(=O)N1[C@@H]2C[C@@H]2C[C@H]1c1nc(-c2ccc(C#Cc3ccc(-c4c[nH]c([C@@H]5C[C@H]6C[C@H]6N5C(=O)[C@@H](NC(=O)OC)C5CCC5)n4)cc3)cc2)c[nH]1)C1CCC1` [Example M5, dimethyl (1,2-ethynediylbis(4,1-phenylene-1H-imidazole-4,2-diyl(1R,3S,5R)-2-azabicyclo[3.1.0]hexane-3,2-diyl((1S)-1-cyclobutyl-2-oxo-2,1-ethanediyl)))biscarbamate], the EC50 under setting [1] fell in the range of 0.1 to 0.99 nM.
In the case of `COC(=O)N[C@H](C(=O)N1[C@@H]2C[C@@H]2C[C@H]1c1nc(-c2ccc(C#Cc3ccc(-c4c[nH]c([C@@H]5C[C@H]6C[C@H]6N5C(=O)[C@@H](NC(=O)OC)C5CCOCC5)n4)cc3)cc2)c[nH]1)C1CCOCC1` [Example M6, dimethyl (1,2-ethynediylbis(4,1-phenylene-1H-imidazole-4,2-diyl(1R,3S,5R)-2-azabicyclo[3.1.0]hexane-3,2-diyl((1S)-2-oxo-1-(tetrahydro-2H-pyran-4-yl)-2,1-ethanediyl)))biscarbamate], the EC50 by setting is: under setting [2], 0.0033 nM; under setting [1], 0.002 to 0.099 nM.
For `COC(=O)N[C@H](C(=O)N1[C@@H]2C[C@@H]2C[C@H]1c1nc(-c2ccc(C#Cc3ccc(-c4c[nH]c([C@@H]5C[C@H]6C[C@H]6N5C(=O)[C@@H](NC(=O)OC)C5CCOCC5)n4)cc3)cc2)c[nH]1)C(C)C` [Example M7, methyl ((1S)-1-(((1R,3S,5R)-3-(4-(4-((4-(2-((1R,3S,5R)-2-((2S)-2-((methoxycarbonyl)amino)-2-(tetrahydro-2H-pyran-4-yl)acetyl)-2-azabicyclo[3.1.0]hex-3-yl)-1H-imidazol-4-yl)phenyl)ethynyl)phenyl)-1H-imidazol-2-yl)-2-azabicyclo[3.1.0]hex-2-yl)carbonyl)-2-methylpropyl)carbamate], the EC50 under setting [1] was in the range of 0.002 to 0.099 nM.
Still for that read-out and setting: with `COC(=O)N[C@H](C(=O)N1[C@@H]2C[C@@H]2C[C@H]1c1nc(-c2ccc(C#Cc3ccc(-c4[nH]c([C@@H]5C[C@H]6C[C@H]6N5C(=O)[C@@H](NC(=O)OC)C(C)C)nc4Cl)cc3)cc2)c[nH]1)C(C)C` [Example M8, methyl ((1S)-1-(((1R,3S,5R)-3-(4-chloro-5-(4-((4-(2-((1R,3S,5R)-2-((2S)-2-((methoxycarbonyl)amino)-3-methylbutanoyl)-2-azabicyclo[3.1.0]hex-3-yl)-1H-imidazol-4-yl)phenyl)ethynyl)phenyl)-1H-imidazol-2-yl)-2-azabicyclo[3.1.0]hex-2-yl)carbonyl)-2-methylpropyl)carbamate] the figure was 0.002 to 0.099 nM.

The values above are taken from patent US8796466B2, “Hepatitis C virus inhibitors” (Bristol-Myers Squibb Company, priority 2009, dated 2014).
